# Reference: PubChem BioAssay AID1259407 (Chemical Carcinogenesis Research Information System (CCRIS), 2018)
# The source made the active and inactive calls. No rule for the calls is given here.
# System: CCRIS mutagenicity, Ames/micronucleus/aberration tests
# Assay: CCRIS mutagenicity studies
# [1] = Test System: AMES SALMONELLA TYPHIMURIUM, Strain/Indicator: TA98, Metabolic Activation: NONE, Method: STANDARD PLATE
compound,measurement,setting,value
CCCCOc1ccc(C=Nc2ccc(CC)cc2)cc1,mutagenic call,"Test System: AMES SALMONELLA TYPHIMURIUM, Strain/Indicator: TA97, Metabolic Activation: HAMSTER, LIVER, S-9, AROCLOR 1254 (30%), Method: PREINCUBATION",inactive; negative
same,mutagenic call,"Test System: AMES SALMONELLA TYPHIMURIUM, Strain/Indicator: TA97, Metabolic Activation: NONE, Method: PREINCUBATION",inactive; negative
same,mutagenic call,"Test System: AMES SALMONELLA TYPHIMURIUM, Strain/Indicator: TA97, Metabolic Activation: RAT, LIVER, S-9, AROCLOR 1254 (30%), Method: PREINCUBATION",inactive; negative
same,mutagenic call,"Test System: AMES SALMONELLA TYPHIMURIUM, Strain/Indicator: TA98, Metabolic Activation: HAMSTER, LIVER, S-9, AROCLOR 1254 (30%), Method: PREINCUBATION",inactive; negative
same,mutagenic call,"Test System: AMES SALMONELLA TYPHIMURIUM, Strain/Indicator: TA98, Metabolic Activation: NONE, Method: PREINCUBATION",inactive; negative
same,mutagenic call,"Test System: AMES SALMONELLA TYPHIMURIUM, Strain/Indicator: TA98, Metabolic Activation: RAT, LIVER, S-9, AROCLOR 1254 (30%), Method: PREINCUBATION",inactive; negative
same,mutagenic call,"Test System: AMES SALMONELLA TYPHIMURIUM, Strain/Indicator: TA100, Metabolic Activation: HAMSTER, LIVER, S-9, AROCLOR 1254 (10%), Method: PREINCUBATION",inactive; negative
same,mutagenic call,"Test System: AMES SALMONELLA TYPHIMURIUM, Strain/Indicator: TA100, Metabolic Activation: NONE, Method: PREINCUBATION",inactive; negative
same,mutagenic call,"Test System: AMES SALMONELLA TYPHIMURIUM, Strain/Indicator: TA100, Metabolic Activation: RAT, LIVER, S-9, AROCLOR 1254 (30%), Method: PREINCUBATION",inactive; negative
same,mutagenic call,"Test System: AMES SALMONELLA TYPHIMURIUM, Strain/Indicator: TA1535, Metabolic Activation: HAMSTER, LIVER, S-9, AROCLOR 1254 (10%), Method: PREINCUBATION",inactive; negative
same,mutagenic call,"Test System: AMES SALMONELLA TYPHIMURIUM, Strain/Indicator: TA1535, Metabolic Activation: HAMSTER, LIVER, S-9, AROCLOR 1254 (30%), Method: PREINCUBATION",inactive; negative
same,mutagenic call,"Test System: AMES SALMONELLA TYPHIMURIUM, Strain/Indicator: TA1535, Metabolic Activation: NONE, Method: PREINCUBATION",inactive; negative
same,mutagenic call,"Test System: AMES SALMONELLA TYPHIMURIUM, Strain/Indicator: TA1535, Metabolic Activation: RAT, LIVER, S-9, AROCLOR 1254 (30%), Method: PREINCUBATION",inactive; negative
same,mutagenic call,"Test System: AMES SALMONELLA TYPHIMURIUM, Strain/Indicator: TA1537, Metabolic Activation: HAMSTER, LIVER, S-9, AROCLOR 1254 (30%), Method: PREINCUBATION",inactive; negative
same,mutagenic call,"Test System: AMES SALMONELLA TYPHIMURIUM, Strain/Indicator: TA1537, Metabolic Activation: NONE, Method: PREINCUBATION",inactive; negative
same,mutagenic call,"Test System: AMES SALMONELLA TYPHIMURIUM, Strain/Indicator: TA1537, Metabolic Activation: RAT, LIVER, S-9, AROCLOR 1254 (30%), Method: PREINCUBATION",inactive; negative
O=[N+]([O-])c1ccc2c3c(cccc13)-c1cc3ccccc3cc1-2,mutagenic call,[1],active; positive
Nc1ccn([C@H]2CC[C@@H](CO)O2)c(=O)n1,mutagenic call,"Test System: AMES SALMONELLA TYPHIMURIUM, Strain/Indicator: TA98, Metabolic Activation: HAMSTER, LIVER, S-9, AROCLOR 1254, Method: STANDARD PLATE",inactive; negative
same,mutagenic call,[1],inactive; negative
same,mutagenic call,"Test System: AMES SALMONELLA TYPHIMURIUM, Strain/Indicator: TA98, Metabolic Activation: RAT, LIVER, S-9, AROCLOR 1254, Method: STANDARD PLATE",inactive; negative
same,mutagenic call,"Test System: AMES SALMONELLA TYPHIMURIUM, Strain/Indicator: TA100, Metabolic Activation: HAMSTER, LIVER, S-9, AROCLOR 1254, Method: STANDARD PLATE",inactive; negative
same,mutagenic call,"Test System: AMES SALMONELLA TYPHIMURIUM, Strain/Indicator: TA100, Metabolic Activation: NONE, Method: STANDARD PLATE",inactive; negative
same,mutagenic call,"Test System: AMES SALMONELLA TYPHIMURIUM, Strain/Indicator: TA100, Metabolic Activation: RAT, LIVER, S-9, AROCLOR 1254, Method: STANDARD PLATE",inactive; negative
same,mutagenic call,"Test System: MOUSE LYMPHOMA, Strain/Indicator: L5178Y (TK+/TK-), Metabolic Activation: NONE, Method: MICROWELL",inactive; negative
same,mutagenic call,"Test System: MOUSE LYMPHOMA, Strain/Indicator: L5178Y (TK+/TK-), Metabolic Activation: NONE, Method: SUSPENSION/PLATE",inactive; negative. reevaluation of results: negative
same,mutagenic call,"Test System: MOUSE LYMPHOMA, Strain/Indicator: L5178Y (TK+/TK-), Metabolic Activation: RAT, LIVER, S-9, AROCLOR 1254, Method: SUSPENSION/PLATE",inactive; negative. reevaluation of results: negative
same,mutagenic call,"Test System: MOUSE LYMPHOMA, Strain/Indicator: L5178Y (TK+/TK-), Metabolic Activation: S-9, Method: MICROWELL",inactive; negative
